Consider 21 compounds from patent publication US20180249717A1, “HOUSE DUST MITE ALLERGY PROTEIN REMOVER, AND COMPOSITION THEREOF” (AYJ BIO LAB INC., priority 2015, published 2018).

SMILES strings stand for the structures.

The test system of data set [1] is Dermatophagoides farina house dust mite proteins. The experiment in a line: Dot-blot immunoassay for human-specific IgE reactivity (inhibition of allergenicity). The data set is classed as binding. The settings on record: 500 μg each, allergic patient's serum IgE. Also noted: unit not given here. As to the method: (§1) In addition, a dot-blot immunoassay for human-specific IgE reactivity was performed, as described previously [Tsai, L. C., Y. C. Sun, P. L. Chao, M. W. Hung, I. C. Kuo, et al. 2000. Protein sequence analysis and mapping of IgE and IgG epitopes of an allergenic 98 kDa Dermatophagoides farinae paramyosin, Der f 11. Allergy 55: 141147]. House dust mite proteins (10 μg) were applied to a PVDF membrane using a Hybri-Dot Manifold (Life Technologies, Gaithersburg, Md.) according to the manufacturer's instructions. After blocking with 0.1% PBS-T containing 5% skim milk, the membrane was incubated with 1:500 diluted allergic patient's antiserum at 4° C. overnight. After washing with 0.1% PBS-T three times, the membrane was incubated with 1:20000 diluted goat anti-human IgG (H+L)-HRP and IgE-HRP conjugate (Zymed Laboratories, Sanfrancisco, Calif.) for 1 hr at 25±1° C. The essential oils and compounds (500 μg each) were tested with the patient's serum which was diluted 1:250, and then incubated 1:5000 diluted IgE-HRP conjugate antibodies. After additional washing, as stated previously, the blot was incubated with ECL chemiluminescence reagent for 1 min and exposed to X-ray films for 5-20 min at room temperature. The intensity of the IgE-reacting dot was determined using a Bio-Rad Gel Doc XR image analyzer, as stated previously. Tannic acid served as a standard reference and was similarly formulated.
(§2) The reference numerals used in FIG. 2 indicate the following: C: untreated control; T: tannic acid; 1: spearmint essential oil; 2: Summer savory essential oil; 3: Oregano essential oil; 4: Carrot seed essential oil; 5: Catnip essential oil; 6: Mandarin essential oil; 7: Lime essential oil; and 8: Celery essential oil.
(§3) The inhibitory activities of the above-described plant essential oils and compounds against the allergenicity of two species of house dust mite proteins are shown in Tables 9 and 10 below, respectively. […]

Data set [2] has as its system Dermatophagoides pteronyssinus house dust mite proteins. Described as above. The data set is classed as binding. The note with it: 500 μg each, allergic patient's serum IgE. As to the method:
as §1, §2, §3

For data set [3], the system named is house dust mite proteins (two major HDM allergens group 1 and 2). As to the kind of experiment: SDS-PAGE denaturing/neutralizing activity against house dust mite proteins. The data set is classed as biochemical. Also noted: key: +++: comparable to or higher than the activity of the positive control tannic acid; ++: neutralizing activity somewhat lower than that of the positive control. The note with it: compounds; incubated with mite proteins 1 hr at 25 C; relative to tannic acid. An excerpt: Adult mites (both sexes, 6-8 days old) were extracted, as described previously [Nakada, S., K. Ito, C. Urata, Y. Sakamoto, M. Hasegawa, T. Nakagawa & T. Miyamoto. 1985. Allergenecity and immunogenicity of house-dust mite (Dermatophagoides farinae) antigens treated with glutaraldehyde. Ann. Allergy 54: 437441; Tovey, E. R. & B. A. Baldo. 1987. Comparison by electroblotting of IgE-binding components in ectracts of house dust mite bodies and spent mite culture. J. Allergy Clin. Immunol. 79: 93102.]. In brief, whole bodies (80 mg fresh weight/4 mL buffer) were homogenized on ice in 0.01 M phosphate-buffered saline (PBS) (pH 7.4) for 15 min. The homogenate was then stirred at 0° C. for 1 hr, centrifuged for 30 min at 14000 g, and concentrated by ultrafiltration to 1 mg/mL of protein.
The protein content was determined using a Bradford protein assay kit (Pierce, Rockford, Ill.). Bovine serum albumin (Pierce, Rockford, Ill.) was used as the standard. Precision Plus Protein Standards was supplied by Bio-Rad (Hercules, Calif.).
SDS-PAGE was performed according to the modified method of Laemmli [Laemmli, U.K. 1970. Cleavage of structural proteins during the assembly of the head of bacteriophage T4. Nature 227: 680685]. Based on the preliminary test results, mixtures of mite proteins ([…]) and each test material ([…]) in 4.5 μL of dimethyl sulfoxide (DMSO) were incubated for 1 hr at 25±1° C. Negative controls consisted of 4.5 μL of DMSO. Tannic acid or 3% tannic acid solution served as a positive control and was similarly formulated. Samples were mixed with an equal volume of SDS sample buffer (4% SDS, 4% mercaptoethanol, and 100 mM Tris-HCl, pH 8.0), boiled for 10 min, and resolved by electrophoresis on 12% (w/v) polyacrylamide gels by using a Mini-Protean 3 electrophoresis cell (Bio-Rad, Hercules, Calif.). After electrophoresis at 120 V for 80 min, the gels were stained with 0.1% Coomassie brilliant blue R-250 for quantification. The intensity of denaturing activity of each test material toward the two major HDM allergens group 1 and 2 was determined using a Gel Doc XR image analyzer with Quantity One Software (Bio-Rad, Hercules, Calif.) according to the manufacturer's instructions.
In FIG. 1, lane M represents a protein marker; land Ext represents a negative control loaded only with untreated house dust mite protein; lanes 5 and 6 indicate moderate activity; lanes 1, 2, 3 and 4 indicate strong activity; and lane TA represents a positive control treated with tannic acid.
Plant essential oils and compounds, confirmed to have neutralizing activity against house dust mites in the above experiments, are summarized in Tables 7 and 8 below, respectively.

Data set [4] deals with adult American house dust mites (Dermatophagoides farina). As to the kind of experiment: Spray bioassay of spray formulations (acaricidal activity). The data set is classed as in vivo. The note with it: sprayed on cotton fabric, 24 h post-treatment. The procedure:
The acaricidal effect of each of carrot seed essential formulations and spearmint essential oil formulations, dissolved in ethanolpolyoxyethylene+polyoxypropylene (9:1) styrenated phenyl ether, was evaluated using a spray bioassay.
In brief, a spray bioassay was used to evaluate the efficacy of four experimental spray formulations against adult American house dust mites (Dermatophagoides farina) [Lee, J. H., J. R. Kim, Y. R. Koh & Y. J. Ahn. 2013. Contact and fumigant toxicity of Pinus densiflora needle hydrodistillate constituents and related compounds and efficacy of spray formulations containing the oil to Dermatophagoides farinae. Pest Manag. Sci. 69: 696702]. Each test solution was sprayed two times successively at 10 cm upwards onto the 5 cm diameter black cotton-fabric circle. After drying for 5 min, each fabric circle was placed onto the bottom section of a disposable Petri dish (5 cm diameter×1 cm height). Groups of 40-50 adult mites (both sexes, 7-10 days old) were placed separately onto the treated fabric circles, and each dish was sealed with the original tight-fitting lid. 2.5 g/L of the commercial acaricide d-phenothrin or permethnrin (cis:trans, 25:75) spray served as a positive control. […] Mortalities were determined 24 h post-treatment under a dissecting microscope (×20). […]

Data set [5] has as its system group 1 allergens (Der p I and Der f I). The settings on record: 3% tannic acid solution (wt/vol); cited from earlier work.
Data set [6] has as its system group 2 allergens (Der p II and Der f II). The settings on record: 3% tannic acid solution (wt/vol), compared with group 1; cited from earlier work.

As for `C=CCN=C=S` [Allyl isothiocyanate], the “Inhibition of allergenicity, Dermatophagoides farina” value (shortened to “Inhibition … Dermatophagoides farina”) in data set [1] (compounds) is given as 82.1. In addition, the “Inhibition of allergenicity, Dermatophagoides pteronyssinus” value in data set [2] (compounds) was determined as 73.0. The Neutralizing activity result in data set [3] is on record as “+++”.

In the case of `CC=Cc1ccc(OC)cc1` [Anethole], the “Inhibition … Dermatophagoides farina” value in data set [1] (compounds) is given as 62.3. Moreover, in data set [2] (compounds), the “Inhibition of allergenicity, Dermatophagoides pteronyssinus” value was found to be 52.1. For the same compound, in data set [3], the Neutralizing activity entry was “++”.

`C/C=C\c1cc(OC)c(OC)cc1OC` [Beta-asarone]: the “Inhibition … Dermatophagoides farina” value in data set [1] (compounds) amounted to 64.9. Further, in data set [2] (compounds), the “Inhibition of allergenicity, Dermatophagoides pteronyssinus” value turned out to be 68.5. For the same compound, the Neutralizing activity result in data set [3] is reported as “++”.

With `CC12CCC(CC1=O)C2(C)C` (stereo not drawn) [Camphor], the “Inhibition … Dermatophagoides farina” value in data set [1] (compounds) came out at 78.2. In addition, in data set [2] (compounds), the “Inhibition of allergenicity, Dermatophagoides pteronyssinus” value worked out at 77.9. Besides, in data set [3], the Neutralizing activity result was “++”.

Take `CC(C)=CCCC(C)CCO` (stereo not drawn) [Citronellol]: the “Inhibition … Dermatophagoides farina” value in data set [1] (compounds) turned out to be 61.2. For the same compound, the “Inhibition of allergenicity, Dermatophagoides pteronyssinus” value in data set [2] (compounds) stood at 49.2. Besides, the Neutralizing activity entry in data set [3] is “++”.

Turning to `CC(C)c1ccccc1` [Cumene], in data set [1] (compounds), the “Inhibition … Dermatophagoides farina” value is reported as 60.9. The “Inhibition of allergenicity, Dermatophagoides pteronyssinus” value in data set [2] (compounds) was 47.8. The Neutralizing activity entry in data set [3] was “++”.

With `CC(C)c1ccc(C=O)cc1` [Cuminaldehyde], the “Inhibition … Dermatophagoides farina” value in data set [1] (compounds) is 80.4. For the same compound, the “Inhibition of allergenicity, Dermatophagoides pteronyssinus” value in data set [2] (compounds) came out at 76.1. Moreover, the Neutralizing activity entry in data set [3] is on record as “+++”.

On to `CC1=CCC2C(C1)C2(C)C` (stereo not drawn) [Delta-3-carene], for which, in data set [1] (compounds), the “Inhibition … Dermatophagoides farina” value is on record as 77.9. In addition, the “Inhibition of allergenicity, Dermatophagoides pteronyssinus” value in data set [2] (compounds) was determined as 78.1. The Neutralizing activity entry in data set [3] was “+++”.

As to `CC(C)=CCC/C(C)=C/C=O` [Geranial], the “Inhibition … Dermatophagoides farina” value in data set [1] (compounds) turned out to be 72.6. For the same compound, the “Inhibition of allergenicity, Dermatophagoides pteronyssinus” value in data set [2] (compounds) came out at 68.1. The Neutralizing activity result in data set [3] is reported as “+++”.

As for `C=C(C)[C@@H]1CC[C@@H](C)C[C@H]1O` [Isopulegol], in data set [1] (compounds), the “Inhibition … Dermatophagoides farina” value is listed as 76.5. Besides, the “Inhibition of allergenicity, Dermatophagoides pteronyssinus” value in data set [2] (compounds) was 57.4. In addition, the Neutralizing activity entry in data set [3] is “++”.

Turning to `C=C(C)[C@H](CO)CC=C(C)C` [Lavandulol], in data set [1] (compounds), the “Inhibition … Dermatophagoides farina” value was determined as 74.4. Moreover, the “Inhibition of allergenicity, Dermatophagoides pteronyssinus” value in data set [2] (compounds) was determined as 62.7. In addition, in data set [3], the Neutralizing activity entry is on record as “++”.

Turning to `C=CCc1cc(OC)c2c(c1)OCO2` [Myristicin], the “Inhibition … Dermatophagoides farina” value in data set [1] (compounds) turned out to be 76.3. For the same compound, in data set [2] (compounds), the “Inhibition of allergenicity, Dermatophagoides pteronyssinus” value amounted to 67.0. In addition, the Neutralizing activity result in data set [3] was “+++”.

Take `CC(C)=CCC/C(C)=C\C=O` [Neral]: the “Inhibition … Dermatophagoides farina” value in data set [1] (compounds) is given as 77.2. Also, in data set [2] (compounds), the “Inhibition of allergenicity, Dermatophagoides pteronyssinus” value turned out to be 56.5. Also, the Neutralizing activity result in data set [3] is on record as “++”.

In the case of `CC(C)=CCC/C(C)=C\CO` [Nerol], in data set [1] (compounds), the “Inhibition … Dermatophagoides farina” value stood at 67.9. Moreover, the “Inhibition of allergenicity, Dermatophagoides pteronyssinus” value in data set [2] (compounds) was 42.3. Besides, the Neutralizing activity entry in data set [3] was “++”.

In the case of `C=CC(C)(O)CCC=C(C)CCC=C(C)C` (stereo not drawn) [Nerolidol], in data set [1] (compounds), the “Inhibition … Dermatophagoides farina” value is listed as 42.3. For the same compound, the “Inhibition of allergenicity, Dermatophagoides pteronyssinus” value in data set [2] (compounds) was 67.7. Further, the Neutralizing activity entry in data set [3] is recorded as “++”.

As to `C=C(C)[C@@H]1CC=C(CO)CC1` [Perilla alcohol], the “Inhibition … Dermatophagoides farina” value in data set [1] (compounds) is 68.7. Besides, the “Inhibition of allergenicity, Dermatophagoides pteronyssinus” value in data set [2] (compounds) was 56.5. Further, the Neutralizing activity entry in data set [3] is on record as “++”.

On to `C=C(C)C1CC=C(C=O)CC1` (stereo not drawn) [Perillaldehyde], for which the “Inhibition … Dermatophagoides farina” value in data set [1] (compounds) is reported as 79.1. Moreover, the “Inhibition of allergenicity, Dermatophagoides pteronyssinus” value in data set [2] (compounds) was 76.4. In data set [3], the Neutralizing activity entry was “+++”.

Turning to `CC1(C)C(C=C(Cl)Cl)C1C(=O)OCc1cccc(Oc2ccccc2)c1` (stereo not drawn) [Permethrin], in data set [4] (Dermatophagoides, spearmint essential oil sprays, permethrin spray 2.5 g/L as positive control, read-out: Mortality (%, standard error)), the mortality at 2500 µg/mL was determined as 17.3 ± 3.3%.

In the case of `O=C(OC[C@H]1O[C@@H](OC(=O)c2cc(O)c(O)c(OC(=O)c3cc(O)c(O)c(O)c3)c2)[C@H](OC(=O)c2cc(O)c(O)c(OC(=O)c3cc(O)c(O)c(O)c3)c2)[C@@H](OC(=O)c2cc(O)c(O)c(OC(=O)c3cc(O)c(O)c(O)c3)c2)[C@@H]1OC(=O)c1cc(O)c(O)c(OC(=O)c2cc(O)c(O)c(O)c2)c1)c1cc(O)c(O)c(OC(=O)c2cc(O)c(O)c(O)c2)c1` [Tannic acid, reference compound], the “Inhibition … Dermatophagoides farina” value in data set [1] (essential oils) worked out at 87.2. The “Inhibition of allergenicity, Dermatophagoides pteronyssinus” value in data set [2] (essential oils) came to 81.1. Moreover, the “Denaturation of group 1 allergens” value in data set [5] was “denatures”. Further, the “Denaturation of group 2 allergens” value in data set [6] is “somewhat less effective”.

With `Cc1ccc(C(C)C)c(O)c1` [Thymol], the “Inhibition … Dermatophagoides farina” value in data set [1] (compounds) is on record as 79.4. The “Inhibition of allergenicity, Dermatophagoides pteronyssinus” value in data set [2] (compounds) is reported as 67.9. In addition, the Neutralizing activity entry in data set [3] is “+++”.

As for `CC(C)=CC1C(C(=O)OCc2cccc(Oc3ccccc3)c2)C1(C)C` (stereo not drawn) [d-Phenothrin, d-phenothrin], in data set [4] (carrot seed essential oil sprays, d-phenothrin spray 2.5 g/L as positive control), the “Mortality (%, standard error)” value is reported as 8.3 ± 1.7 d %.

Usually mortality stands for the percentage killed.
